ChEMBL document CHEMBL1156934, “Synthesis and SAR of thiazolidinedione derivatives as 15-PGDH inhibitors” (Bioorg Med Chem, 2010)

Biological target: T1, 15-hydroxyprostaglandin dehydrogenase [NAD(+)] (Homo sapiens, UniProt P15428)
T1 sequence (P15428 whole entry): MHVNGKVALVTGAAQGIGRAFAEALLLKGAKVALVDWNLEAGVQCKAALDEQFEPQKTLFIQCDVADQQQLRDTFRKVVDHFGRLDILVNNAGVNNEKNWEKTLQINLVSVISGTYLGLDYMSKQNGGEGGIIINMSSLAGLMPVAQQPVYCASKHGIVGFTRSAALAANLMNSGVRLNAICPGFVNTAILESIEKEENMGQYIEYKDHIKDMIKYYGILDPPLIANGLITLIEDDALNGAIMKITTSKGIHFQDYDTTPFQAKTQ
Experiment: Inhibition of human 15PGDH expressed in Escherichia coli BL-21 by fluorescence spectrophotometry

Which IC50 does the source give for `O=C1NC(=O)/C(=C/c2ccc(OCCN3CCOCC3)cc2)S1` here?
The IC50 was 713 nM.

Which IC50 does the source give for `O=C1S/C(=C\c2ccc(OCCC3CCCCC3)cc2)C(=O)N1CCO` here?
Its IC50 is 526 nM.

With `CC1CCC(COc2ccc(/C=C3\SC(O)=NC3=O)cc2)CC1` (stereo unspecified) as the compound, how does the IC50 read?
The IC50 was 52 nM.

For `O=C1C/C(=C\c2ccc(OCCC3CCCCC3)cc2)C(=O)N1`, which IC50 is on record?
The IC50 was 3790 nM.

Which IC50 does the source give for `O=C1N=C(O)S/C1=C\c1ccc(OCCc2ccccn2)cc1` here?
Its IC50 is 660 nM.

`COc1ccc(COc2ccc(/C=C3\SC(=O)NC3=O)cc2)cc1` was tested. Which IC50 did it give?
The IC50 was 529 nM.

For `O=C1NC(=O)/C(=C/c2ccc(OCCc3ccsc3)cc2)S1`, which IC50 is on record?
Its IC50 is 60 nM.

`CC(C)OCCOc1ccc(/C=C2\SC(O)=NC2=O)cc1` was tested. Which IC50 did it give?
The IC50 was 1250 nM.

How did the IC50 turn out when `O=C1N=C(O)S/C1=C\c1ccc(OCCCN2CCS(=O)(=O)CC2)cc1` was run?
The IC50 was 1960 nM.

With `O=C1NC(=O)/C(=C\c2ccc(OCc3ccc(-c4ccccc4)cc3)cc2)S1` as the compound, how does the IC50 read?
Its IC50 is 814 nM.

`O=C1N=C(O)S/C1=C\c1ccc(OCc2ccc3c(c2)OCO3)cc1` was tested. Which IC50 did it give?
The IC50 was 252 nM.

`COC(=O)C1CCC(COc2ccc(/C=C3\SC(=O)NC3=O)cc2)CC1` (stereo unspecified) was tested. Which IC50 did it give?
Its IC50 is 620 nM.

For `Cc1ncsc1CCOc1ccc(/C=C2\SC(O)=NC2=O)cc1`, which IC50 is on record?
The IC50 was 636 nM.

How did the IC50 turn out when `O=C1N=C(O)S/C1=C\c1ccc(OCCN2CCS(=O)(=O)CC2)cc1` was run?
The IC50 was 274 nM.

With `O=C1N=C(O)S/C1=C\c1ccc(OCc2ccsc2)cc1` as the compound, how does the IC50 read?
The IC50 was 429 nM.

For `O=C1NC(=O)/C(=C/c2ccc(OCC3CCCC3)cc2)S1`, which IC50 is on record?
Its IC50 is 45 nM.

For `O=C1NC(=O)/C(=C\c2ccc(OCC3COc4ccccc4O3)cc2)S1` (stereo unspecified), which IC50 is on record?
The IC50 was 172 nM.

How did the IC50 turn out when `O=C1NC(=O)/C(=C/c2ccc(OCCC3CCCC3)cc2)S1` was run?
The IC50 was 116 nM.

Which IC50 does the source give for `O=C1N=C(O)S/C1=C\c1ccc(OCCN2CCCCC2)cc1` here?
Its IC50 is 1440 nM.

`Cc1ccc(COc2ccc(/C=C3\SC(O)=NC3=O)cc2)cc1` was tested. Which IC50 did it give?
The IC50 was 232 nM.

`O=C1NC(=O)/C(=C/c2ccc(OCCC3CCCCO3)cc2)S1` (stereo unspecified) was tested. Which IC50 did it give?
The IC50 was 750 nM.

For `O=C1N=C(O)S/C1=C\c1ccc(OCCNC2CCCCC2)cc1`, which IC50 is on record?
Its IC50 is 3720 nM.

Which IC50 does the source give for `O=C1NC(=O)/C(=C/c2ccc(OCc3ccco3)cc2)S1` here?
The IC50 was 893 nM.

How did the IC50 turn out when `O=C1NC(=O)/C(=C/c2ccc(OCc3cccs3)cc2)S1` was run?
Its IC50 is 287 nM.

With `O=C1NC(=O)/C(=C/c2ccc(OCCC3CCCCC3)cc2)N1` as the compound, how does the IC50 read?
The IC50 was 865 nM.

How did the IC50 turn out when `O=C1N=C(O)S/C1=C\c1ccc(OCCc2cccs2)cc1` was run?
The IC50 was 31 nM.
